In patent publication US4864021A, “5-fluorouracil derivatives” (Otsuka Pharmaceutical Co., Ltd., priority 1984, dated 1989) one finds LD50 and ED50 data, which are given here for nine compounds.

Tested on in the first data set: not listed separately
As to the kind of experiment: Acute toxicity, oral, 14 days observation, Litchfield-Wilcoxon method. The conditions noted are these: mouse, in vivo, 5-week-old ICR male mice. On the procedure:
The compounds of the present invention prepared in Examples 2 and 54 were each orally administered to 5-week-old ICR male mice (8 mice in each group) to check the mice for the symptoms, change of weight and mortality by observing the mice for 14 consecutive days after the administration of the compounds. The LD50 value was determined from the mortality by the Litchfield-Wilcoxon method with the results shown below in Table 3.
Usually LD50 stands for the dose at which mortality reaches 50%. A higher LD50 goes with lower toxicity. `O=c1[nH]c(=O)n([C@H]2C[C@H](OCc3ccccc3)[C@@H](CO)O2)cc1F` [Example 2, 3'-O-benzyl-2'-deoxy-5-fluorouridine] returned an LD50 at 336 h of more than 1000 mg/kg. On the same count and under the same terms, for `CC(=O)OC[C@H]1O[C@@H](n2cc(F)c(=O)[nH]c2=O)C[C@@H]1OCc1ccccc1` [Example 54, 3'-O-benzyl-5'-O-acetyl-2'-deoxy-5-fluorouridine] the value was more than 1000 mg/kg.

The next data set concerns Sarcoma-180. Kind of data set: Antitumor test: Sarcoma-180 subcutaneously transplanted in ICR mice, oral once a day for 7 days, tumor weight on 10th day (50% tumor inhibition dose). The conditions noted are these: Mus musculus, 240 h, Table 1, Sarcoma-180 s.c. in ICR mice, once a day for 7 consecutive days, tumor weight on 10th day, read-out: ED50 (50% tumor inhibition dose, T/C is 0.5). The data set is classed as in vivo. On the procedure: (a) Sarcoma-180 subcultured in an ascites of ICR mice was diluted with a physiological saline solution and subcutaneously transplated into the backs of ICR mice in an amount of 2×10^7 each. Twenty-four hours after the transplantation, a test compound suspended in a 5% solution of gum arabic was orally administered to each of mice once a day for 7 consecutive days.
The solid tumor was extirpated from under the dorsal skin of mice on the 10th day after the transplantation to measure the weight of the tumor. There was determined the ratio (T/C) of the weight of tumor (T) cut out from the group of mice treated with the test compound to the weight of tumor (C) from the group of mice not treated therewith. The 50% tumor inhibition dose (ED50 value) in which T/C is 0.5 was determined from the dose-response curve of dosage and the ratio (T/C).
For the compound `O=c1[nH]c(=O)n([C@H]2C[C@H](OCc3ccccc3F)[C@@H](CO)O2)cc1F` [Example 2], the ED50 is 8 mg/kg.

In the case of `CC(=O)OC[C@H]1O[C@@H](n2cc(F)c(=O)[nH]c2=O)C[C@@H]1OCc1ccccc1` [Example 54, 3'-O-benzyl-5'-O-acetyl-2'-deoxy-5-fluorouridine], the ED50 stood at 15 mg/kg. Same read-out and setting: the same measure for `O=c1[nH]c(=O)n([C@H]2C[C@H](OCc3ccccc3)[C@@H](CO)O2)cc1F` [drawing 480]: 8 mg/kg.

The same data set, now with this note: Mus musculus, 240 h, Table 2, same manner as in (a): Sarcoma-180 s.c. in ICR mice, once a day for 7 consecutive days, read-out: ED50 (50% tumor inhibition dose, T/C is 0.5).
For the compound `CC(=O)OC[C@H]1O[C@@H](n2cc(F)c(=O)n(C(=O)c3cccc(C(=O)Oc4cc(OC(=O)c5ccccc5)c(Cl)cn4)c3)c2=O)C[C@@H]1OC(C)=O` [Example 197, 3-[3-(4-benzoyloxy-5-chloro-2-pyridyloxycarbonyl)benzoyl]-2'-deoxy-3',5'-di-O-acetyl-5-fluorouridine], the ED50 is 7 mg/kg. On the same count and under the same terms, the same measure for `CC(=O)Oc1cc(OC(=O)c2cccc(C(=O)n3c(=O)c(F)cn([C@@H]4O[C@H](C)[C@@H](OC(C)=O)[C@H]4OC(C)=O)c3=O)c2)c(Cl)cn1` [Example 201, 3-[3-(2-acetoxy-5-chloro-4-pyridyloxycarbonyl)benzoyl]-5'-deoxy-2',3'-di-O-acetyl-5-fluorouridine]: 12 mg/kg. Same read-out and setting: the same measure for `CC(=O)OC[C@H]1O[C@@H](n2cc(F)c(=O)n(C(=O)c3cccc(C(=O)Oc4cc(OC(=O)c5ccccc5)c(Cl)cn4)c3)c2=O)[C@H](OC(C)=O)[C@@H]1OC(C)=O` [Example 202, 3-[3-(4-benzoyloxy-5-chloro-2-pyridyloxycarbonyl)benzoyl]-5-fluoro-2',3',5'-tri-O-acetyluridine]: 22 mg/kg. The same measure, in the same setting: the same measure for `O=C(Oc1cc(OC(=O)c2ccccc2)c(Cl)cn1)c1cccc(C(=O)n2c(=O)c(F)cn([C@H]3C[C@H](OCc4ccccc4)[C@@H](COCc4ccccc4)O3)c2=O)c1` [Example 208, 3-[3-(4-benzoyloxy-5-chloro-2-pyridyloxycarbonyl)benzoyl]-2'-deoxy-3',5'-di-O-benzyl-5-fluorouridine]: 5 mg/kg; for `CCOCn1cc(F)c(=O)n(C(=O)c2cccc(C(=O)Oc3nc(OC(=O)c4ccccc4)ccc3C#N)c2)c1=O` [Example 227, 3-[3-(3-cyano-6-benzoyloxy-2-pyridyloxycarbonyl)benzoyl]-1-ethoxymethyl-5-fluorouracil]: 5 mg/kg.
